According to patent publication US6869931B1, “Inhibition of angiogenesis by high molecular weight kininogen domain 3 peptide analogs” (Temple University - Of The Commonwealth System of Higher …, priority 1998, dated 2005):
pIC50: −log10 of the molar value. Residues, ends and D or L forms follow the SMILES beside them. No end group written: not given here.

Test system: human umbilical vein endothelial cells (HUVEC)
Details: 48 h
Experimental: Human umbilical vein endothelial cells (HUVEC) were isolated and cultured as previously described (Graham et al., Blood 91:3300-7 1998). Cells were of passage 3 or lower.
To assess the effect of peptides on endothelial cell proliferation, HUVEC were suspended at a concentration of 30,000 cells/ml in M199 containing 2% FCS. One hundred microliters of this suspension was then plated in individual wells of a 96 well microplate precoated with 1% gelatin. […] Cells were then incubated for 48 hours at 37° C., at which time the relative numbers of cells in each well were determined using the Cell Titer® Aqueous cell proliferation assay (Promega, Madison, Wis.). […] The significance of differences in relative endothelial cell proliferation cell numbers at the end of the proliferation assays was determined using the Student's two-tailed T-test for paired samples. The IC50 was then calculated for each compound.

Point of comparison: “H-LDANAEVYVVPWEKKI-OH [SEQ ID NO:16, Leu-Asp-Ala-Asn-Ala-Glu-Val-Tyr-Val-Val-Pro-Trp-Glu-Lys-Lys-Ile]”, pIC50 4.36. Against it:
- CC[C@H](C)[C@H](NC(=O)[C@H](CCCCN)NC(=O)[C@@H](N)[C@@H](C)O)C(=O)N[C@@H](CS)C(=O)N[C@H](C(=O)NCC(=O)N[C@@H](CS)C(=O)N1CCC[C@H]1C(=O)N[C@@H](CCCNC(=N)N)C(=O)N[C@@H](CC(=O)O)C(=O)N[C@H](C(=O)N1CCC[C@H]1C(=O)N[C@H](C(=O)N[C@@H](CC(N)=O)C(=O)N[C@@H](CO)C(=O)N1CCC[C@H]1C(=O)O)[C@@H](C)O)[C@@H](C)CC)C(C)C [SEQ ID NO:11, Thr-Lys-Ile-Cys-Val-Gly-Cys-Pro-Arg-Asp-Ile-Pro-Thr-Asn-Ser-Pro] (H-TKICVGCPRDIPTNSP-OH) — within 0.2 log units, 4.52
- H-ETKKLGQSLDANAEVY-OH [SEQ ID NO:15, Glu-Thr-Lys-Lys-Leu-Gly-Gln-Ser-Leu-Asp-Ala-Asn-Ala-Glu-Val-Tyr] — within 0.2 log units, 4.38
- H-NNATFYFKIDNVKKAR-OH [SEQ ID NO:10, Asn-Asn-Ala-Thr-Phe-Tyr-Phe-Lys-Ile-Asp-Asn-Val-Lys-Lys-Ala-Arg] — higher, > 6.10
- H-TITKLNAENNATFYFK-OH [SEQ ID NO:9, Thr-Ile-Thr-Lys-Leu-Asn-Ala-Glu-Asn-Asn-Ala-Thr-Phe-Tyr-Phe-Lys] — higher, > 6.10
- YFIDFVARETTASKES-OH [SEQ ID NO:20, Tyr-Phe-Ile-Asp-Phe-Val-Ala-Arg-Glu-Thr-Thr-Ala-Ser-Lys-Glu-Ser] — within 0.2 log units, 4.55

Same assay, conditions: HUVEC, bFGF-induced proliferation

With “YFIDFVARETTASKES-OH [SEQ ID NO:20, Tyr-Phe-Ile-Asp-Phe-Val-Ala-Arg-Glu-Thr-Thr-Ala-Ser-Lys-Glu-Ser]” the “Inhibition of endothelial cell proliferation (result in words)” value was “inhibits endothelial cell proliferation”.
